Reference: patent EP0097567B1, “Use of polyethoxylated alkyl phenols as antiseborrheic agents” (SANOFI S.A., priority 1982, dated 1984)

What was measured:
[1] = system: lipogénèse sébacée; experiment: Activity on sebaceous lipogenesis in vitro (incorporation of 14C-glucose into lipids of rat ear skin slices); format: cell-based, rats mâles Sprague Dawley; settings: 4 h, pure products, read-out: Synthèse des lipides à partir de glucose (U-1^14C)Δ % témoin; for inhibition at 0.01 %: concentration 0,01 %; for inhibition at 0.001 %: concentration 0,001 %; for inhibition at 0.0025 %: concentration 0,0025 %; for inhibition at 0.005 %: concentration 0,005 %; for inhibition at 0.0005 %: concentration 0,0005 %
Excerpt: Après sacrifice au chloroforme de rats mâles Sprague Dawley, d'un poids moyen de 210 g, les oreilles sont découpées aux ciseaux suivant des repères anatomiques fixes, puis leur côté ventral est soigneusement rasé. Après fixation à l'aide de rubans adhésifs sur une plaque de verre, le côté ventral de l'oreille est prélivé à l'aide d'un kératotome de Castroviejo dont l'épaisseur de coupe est réglée sur 3 mm. Ce prélèvement est ensuite coupé en petits carrés de 1 mm^2 avec une lame de rasoir et pesé avant introduction dans le tube servant à l'incubation.
L'incubation se fait dans 1,5 ml de Krebs-Ringer tamponné à pH 7,4 (tampon phosphate Sôrensen 1/15 M) et contenant 100 U/ml de pénicilline, 1 mg/ml de Streptomycine et 2 mmol de glucose non radioactif. Le produit, à la concentration à étudier, est préalablement dissous dans du propylèneglycol (concentration finale égale à 0,5%), puis introduit dans le milieu d'incubation. Les tubes servant à l'incubation sont maintenus dans un bain de glace, jusqu'à ce que tous les prélèvements soient effectués, puis 7,4kBq de glucose U_^14C (74-148 MBq/mmol) sont ajoutés dans chaque tube.
Pour chaque rat utilisé, une des oreilles sert à tester le produit antiséborrhéique potentiel, alors que l'autre sert de témoin.
Après 4 heures d'incubation à 37°C, le milieu d'incubation est éliminé, puis l'incubat subit 4 lavages de 3 mins avec agitation à l'aide de glucose non radioactif (2 g/I). Une fois la dernière eau de lavage éliminée, 3 ml de potasse alcoolique N sont rajoutés dans chaque tube contenant les glandes sébacées de la peau d'oreille. Les tubes sont bouchés et portés à 70°C pendant une nuit.
Après ce temps, les tubes sont refroidis et 3 ml d'acide chlorhydrique 2N sont introduits dans chaque tube. Les lipides présents correspondant aux glandes sébacées de chaque oreille sont alors extraits par 2 fois 4 ml d'hexane après agitation de 5 min. Après séparation des phases aqueuse et hexanique, 3,25 ml d'hexane à la première extraction et 4 ml à la deuxième sont prélevés et réunis dans une fiole de comptage contenant 10 ml de liquide de mélange scintillant.
Les fioles, après bouchage et- agitation, sont introduites dans un compteur à scintillation liquide préréglé sur le canal ^14C. Le temps de comptage de chaque fiole est de 4 min. Pour chaque fiole, le résultat exprimé en coups/minute (cpm) est transformé en fonction du poids de prélèvement en cpm/mg et l'inhibition (ou l'augmentation) de la synthèse des lipides est donnée par la variation % (A%) de l'incorporation en cpm/mg entre l'oreille témoin et l'oreille "traitée".
La moyenne des A% est effectuée et la valeur statistique des résultats est déterminée par le calcul du coefficient "t" de Student.

[2] = system: organes du flanc; experiment: Local antiseborrheic activity (testosterone propionate-stimulated hamster flank organ, lipogenesis from 14C-glucose); format: in vivo, hamsters femelles Syrien doré; settings: topical, dose de 2000 µg par jour
Protocol: Des hamsters femelles Syrien doré, d'un poids moyen de 110 g, sont tondus et rasés au niveau des organes du flanc qui se présentent sous l'aspect d'une tache sombre de 2 mm de diamètre environ, de part et d'autre de la colonne vertébrale. Sur un des organes, 1,25 µg de testostérone propionate est appliqué journellement sous un volume de 10 µl d'acétone, l'autre organe recevent la même quantité de testostérone associée au produit à étudier. Le traitement s'effectue 5 jours/7 jours pendant 21 jours.
A la fin de cette période, les animaux sont sacrifiés au chloroforme et les diamètres des taches pigmentées sont measurés à l'aide d'une régie graduée. La peau est prélevée, fixée côte épiderme vers le bas, sur une planche en bois. Le muscle peaucier et le tissu adipeux sont alors éliminés par rabotage au Kératotome de Castroviejo (épaisseur de coupe réglée à 3 mm), puis une biopsie de 10 mm de diamètre au niveau de chaque organe est réalisée à l'aide d'un trépan. Cette biopsie est débitée en carrés de 1 mm^2, puis pesée (±0,1 mg).
Le reste de manipulation: incubation, saponification, extraction, est identique à celui effectué dans le test de lipogénèse in vitro ci-dessus.

Row | SMILES | inhibition at 0.01 % [1] | inhibition at 0.001 % [1] | inhibition at 0.0025 % [1] | inhibition at 0.005 % [1] | inhibition at 0.0005 % [1] | inhibition de la lipogenèse sébacée par rapport au témoin [2] | inhibition at 0.00025 % ([1]; concentration 0,00025 %) | inhibition at 0.025 % ([1]; concentration 0,025 %)
1 | CCCCCCCCCc1ccc(OCCOCCOCCOCCOCCOCCO)cc1 [40 124, nonyl-4 phénoxy-17 pentaoxa-3,6,9,12,15 heptadécanol-1] | 55% | 6% | 31% | 42% |  |  |  | 
2 | CC(C)(C)CC(C)(C)c1ccc(OCCOCCOCCOCCOCCOCCOCCOCCOCCOCCOCCOCCO)cc1 [40 182] |  | 41% | 69% | 89% | 19% |  |  | 
3 | CC(C)(C)CC(C)(C)c1ccc(OCCOCCOCCOCCOCCOCCO)cc1 [40 181] | 67% | 4% | 5% | 42% |  |  |  | 
4 | CCCCCCCCCc1ccc(OCCOCCOCCOCCOCCOCCOCCOCCOCCO)cc1 [compound 7948] | 81% | 10% | 31% | 61% |  |  |  | 
5 | CCCCCCCCCc1ccc(OCCOCCOCCOCCOCCOCCOCCOCCOCCOCCOCCOCCO)cc1 [compound 7886] |  | 51% |  | 84% | 33% | 100% | 6% | 71%
